According to patent US20150315211A1, “SMALL MOLECULES FOR THE MODULATION OF MCL-1 AND METHODS OF MODULATING CELL DEATH, CELL DIVISION, CELL DIFFERENTIATION AND METHODS OF TREATING DISORDERS” (priority 2010, published 2015):

Tests used:
BCL-XLΔC = BCL-XLΔC (Homo sapiens, UniProt Q07817); experiment: High-throughput competitive FP binding screen, FITC-BAD BH3/BCL-XLΔC interaction; details: FITC-BAD BH3/BCL-XLΔC interaction pair, competitive FP screen
MCL-1ΔNΔC [1] = target: MCL-1ΔNΔC (Homo sapiens, UniProt Q07820); experiment: High-throughput competitive FP binding screen, FITC-MCL-1 SAHB/MCL-1ΔNΔC interaction; design: the C-terminal alpha-helix was deleted from each of these constructs; GST (N, cleaved yes); made in house; details: FITC-MCL-1 SAHB/MCL-1ΔNΔC interaction pair, competitive FP screen
MCL-1ΔNΔC [2] = experiment: as above; details: selectivity for MCL-1ΔNΔC over BCL-XLΔC targeting (BCL-XL % Bound minus MCL-1 % Bound)

Sequence of BCL-XLΔC (Q07817 1-212 limits assumed, stated change not applied): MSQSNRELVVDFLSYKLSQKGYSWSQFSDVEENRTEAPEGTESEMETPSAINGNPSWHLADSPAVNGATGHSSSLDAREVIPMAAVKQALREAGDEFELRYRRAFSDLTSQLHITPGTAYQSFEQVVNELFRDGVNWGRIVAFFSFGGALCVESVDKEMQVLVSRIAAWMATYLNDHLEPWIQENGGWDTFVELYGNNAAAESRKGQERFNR
Sequence of MCL-1ΔNΔC (Homo sapiens, UniProt Q07820) (Q07820 172-320 limits assumed, stated change not applied): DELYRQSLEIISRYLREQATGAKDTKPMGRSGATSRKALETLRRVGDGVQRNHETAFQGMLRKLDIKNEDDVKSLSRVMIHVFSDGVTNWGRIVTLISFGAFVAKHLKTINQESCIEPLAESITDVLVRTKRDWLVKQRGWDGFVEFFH

SMILES	BCL-XL % Bound (BCL-XLΔC)	MCL-1% Bound (MCL-1ΔNΔC [1])	Spec Values (MCL-1ΔNΔC [2])
CCOC(=O)c1cc(C#N)c(SCC(=O)c2cc3ccccc3oc2=O)[nH]c1=O	100.2%	31.28%	68.9
N#CC1=C(c2ccc(Cl)cc2)C2CSc3ccccc3C2NC1=O (stereo not drawn)	87.67%	19.37%	68.29
Cc1ccc2c(c1C)NC(C(=O)O)C1CC=CC21 (stereo not drawn)	82.8%	14.6%	68.3
CCN(CC)c1cc(C)c2cc(NC(=O)/C=C/c3ccco3)ccc2n1	79.88%	11.73%	68.15
N#CC1=C(S)NC(=O)C(C#N)C12CCCCC2 (stereo not drawn)	107.0%	39.1%	67.9
CCOC(=O)C(C)Oc1cccc2c(=O)n(CC(=O)Nc3ccc4c(c3)CCCO4)ccc12 (stereo not drawn)	102%	34.53%	67.48
COc1cc2c(O)c3c(c(-c4ccc5c(c4)OCO5)c2cc1OC)C(=O)OC3	104.6%	37.92%	66.63
O=C(ON1C(=O)CCC1=O)c1ccc(Cl)cc1Cl	96.73%	30.48%	66.25
Cn1cc2c(n1)-c1cc(Cl)ccc1SC2	89.61%	23.45%	66.16
CCOC(=O)c1cc(CC)sc1NC(=O)C=C(C)C	90.12%	24.13%	66
COc1ccc(C(Nc2cc(C)ccn2)c2ccc3cccnc3c2O)cc1O (stereo not drawn)	93.02%	27.17%	65.85
c1cc2nsnc2c2c1Nc1nc3nonc3nc1N2	57.68%	−8.097%	65.78
Cc1ncc(CO)c2c1Oc1nc(-c3ccccc3)[nH]c(=S)c1C2	131.2%	66.14%	65.07
CCCCc1c(C)sc(NC(=S)Nn2cnnc2)c1C(=O)OCC	69.53%	4.578%	64.95
CC1CCc2c(sc3[nH]c(=S)sc(=N)c23)C1 (stereo not drawn)	83.66%	18.95%	64.71
O=C1C=Cc2ccc3c4c(ccc1c24)C=CC3=O	91.4%	26.7%	64.7
CC1=C/C(=N\Nc2ccccc2Cl)CC1	99.01%	34.4%	64.61
O=C(O)c1cccc(-c2ccc(CC3Sc4ccccc4C3=O)o2)c1 (stereo not drawn)	95.42%	31.17%	64.25
O=C(O)C1Nc2c(I)cccc2C2C=CCC12 (stereo not drawn)	100.3%	36.12%	64.16
Cc1ccc(CCNC(=O)c2ccc3nc(-c4ccco4)c(-c4ccco4)nc3c2)cc1	99.74%	35.73%	64.01
Clc1cccc2c(N3CCCCCC3)cnnc12	85.37%	21.78%	63.59
Cc1ccc(C)c2[nH]c(=O)c(C(c3nnnn3C3CCCC3)N3CCCC3)cc12 (stereo not drawn)	103.3%	39.75%	63.57
CS(=O)(=O)CS(=O)(=O)NNc1ncc(C(F)(F)F)cc1Cl	104.7%	41.29%	63.45
CN1C(=O)C2(NN=C(c3ccccc3)S2)c2cc(Br)ccc21 (stereo not drawn)	81.72%	18.57%	63.14

SMILES	BCL-XL % Bound (BCL-XLΔC)	MCL-1% Bound (MCL-1ΔNΔC [1])	Spec Values (MCL-1ΔNΔC [2])
O=C(NN=C1CCCC1)c1ccccc1NS(=O)(=O)c1cccs1	92.34%	29.27%	63.07
Cc1nc2c(C(=O)NCc3ccccc3Cl)cnn2c(O)c1Cl	94.42%	31.4%	63.02
O=C(c1ccc(O)cc1)N1CCN(c2cccc(Cl)c2)CC1	90.71%	27.72%	62.99
O=C(c1ccccc1)c1nc2ccccc2oc1=O	43.27%	−19.61%	62.88
CCCCn1c(=O)[nH]c(=O)c2c1nc(-c1cccs1)c(=O)n2C	68.85%	6.013%	62.84
Oc1cccc(C(c2ccc3cccnc3c2O)N2CCCC2)c1 (stereo not drawn)	106.4%	43.7%	62.71
CCCCC(=O)Cc1ccco1	103%	40.94%	62.08
O=C1C=CC(=O)C(CCC2=CC(=O)C=CC2=O)=C1	93.01%	31.21%	61.8
Cc1nc(COC(=O)c2cc(O)c3ccccc3c2O)cs1	101.3%	39.52%	61.73
O=C(CSc1nc2c(sc(=S)n2Cc2ccco2)c(=O)n1-c1ccccc1)c1ccc(O)c(O)c1	120.9%	59.44%	61.48
N#C/C(=C/C=C/c1ccc(-c2cc(Cl)ccc2Cl)o1)C(N)=S	79.39%	18.44%	60.96
Cn1c(/N=C/c2c(O)ccc3ccccc23)nc2ccc(Br)cc21	31.24%	−29.64%	60.88
N#CC1=C(c2ccc(Cl)cc2)COC1=O	88.12%	27.28%	60.84
O=C(CSc1nnc(-c2ccco2)c(-c2ccco2)n1)N1c2ccccc2Sc2ccc(Cl)cc21	98.3%	37.6%	60.7
N#C/C(=C/c1cn(Cc2ccc(C(=O)O)o2)c2ccccc12)c1ccc(F)cc1	65.03%	4.673%	60.36
CS/C(=N\S(=O)(=O)c1ccccc1)NNc1ccccc1	99.39%	39.93%	59.46
O=C1C=CC(=O)C(CCCCCCC2=CC(=O)C=CC2=O)=C1	106.5%	47.19%	59.34
Cc1ccc2c(CC(=O)NCC(=O)OCc3ccccc3)coc2c1	95.64%	36.55%	59.09
Cc1ccc(C(c2c(O)ccc3ccccc23)N2CCOCC2)o1 (stereo not drawn)	100.8%	41.79%	59.04
O=c1[nH]cnc2ccc(Br)cc12	93.69%	34.67%	59.02
Cc1ccc(/C=C2\C(=O)Nc3ccc(Br)cc32)o1	77.59%	18.74%	58.85
COc1cc(C2Nc3cccc4cccc(c34)N2)cc(I)c1O	81.48%	22.81%	58.66
Cc1ccccc1-c1nnc(SCC(=O)NC(=O)Nc2ccccc2F)n1C	98.1%	39.52%	58.58
